Test results: patent publication US12509444B2, “Compounds and methods for CD73 modulation and indications therefor” (Plexxikon Inc., priority 2019, dated 2025)

Columns and labels:
[1] = biological target: T1, Human CD73 (amino acid residues 27-549) (Homo sapiens, UniProt P21589); experiment: CD73 enzymatic assay (luciferase-based indirect assay, CellTiter-Glo); type: biochemical; details: 0.4 nM CD73, 150 μM AMP, 1 hour at room temperature
T1 construct: Human CD73 (amino acid residues 27-549); His tag (N); made in house; host or cells: E. coli
T1 sequence (P21589 27-549): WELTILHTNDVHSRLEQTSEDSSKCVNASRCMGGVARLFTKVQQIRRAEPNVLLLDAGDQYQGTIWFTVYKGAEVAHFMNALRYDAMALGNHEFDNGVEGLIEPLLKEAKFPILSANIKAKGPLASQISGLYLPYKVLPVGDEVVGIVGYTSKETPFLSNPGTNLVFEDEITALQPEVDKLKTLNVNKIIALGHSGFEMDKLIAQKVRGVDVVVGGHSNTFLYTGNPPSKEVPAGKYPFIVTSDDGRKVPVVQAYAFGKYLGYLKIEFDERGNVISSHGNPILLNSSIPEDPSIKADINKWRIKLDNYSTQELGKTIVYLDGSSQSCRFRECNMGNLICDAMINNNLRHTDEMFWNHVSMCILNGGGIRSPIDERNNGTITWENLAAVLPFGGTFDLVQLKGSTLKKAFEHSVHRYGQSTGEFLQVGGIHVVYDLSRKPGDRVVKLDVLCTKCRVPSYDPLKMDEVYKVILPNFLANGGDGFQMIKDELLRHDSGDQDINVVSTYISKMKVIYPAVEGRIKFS
Procedure, shortened: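 His-tagged human CD73 (27-549) from E. coli, 0.4 nM, with 150 μM AMP in 50 mM HEPES pH 7.4, 0.01% Tween 20; 1 h at room temperature. AMP remaining read by CellTiter-Glo 2.0 luminescence with 1 μM final ATP after 30 min. IC50 from nonlinear regression of % inhibition.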

[2] = biological target: T2, human CD73 (Homo sapiens, UniProt P21589); experiment: Inhibitor activity against CD73 in cell based assay (CD73 expressing CHO-K1 cells); details: CHO-K1 cells expressing human CD73, 150 μM AMP, 4 hours of incubation; read-out: CHO-K1 CELL VARIANT: CD73 IC50
T2 construct: expressed in transfected cells
T2 sequence (P21589 27-549): T1 sequence (P21589 27-549)
Procedure, shortened: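 Stably transfected CHO-K1 cells expressing human CD73 (1×10^4/well) incubated 4 h with compound (8-point 1:3 titration, top 10 μM final, 0.2% DMSO) and 150 μM AMP. Residual AMP in supernatant measured by CellTiter-Glo luminescence with 1 μM ATP after 30 min at room temperature; IC50 by nonlinear regression of percent inhibition vs high/low controls.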

IC50 [1]	IC50 [2]	SMILES
0.001 to 10 µM	0.001 to 10 µM	Cc1nc(C)c(C(=O)N2CCC(NC(=O)O[C@@H]3CCN(c4cn[nH]c(=O)c4Cl)C3)CC2)o1 [P-0500, (R)-1-(5-chloro-6-oxo-1,6-dihydropyridazin-4-yl)pyrrolidin-3-yl (1-(2,4-dimethyloxazole-5-carbonyl)piperidin-4-yl)carbamate]
0.001 to 10 µM	0.001 to 10 µM	O=C(NC1CC1)O[C@@H]1CCN(c2cn[nH]c(=O)c2Cl)C1 [P-0092, (R)-1-(5-chloro-6-oxo-1,6-dihydropyridazin-4-yl)pyrrolidin-3-yl cyclopropylcarbamate]
0.001 to 10 µM	0.001 to 10 µM	Cn1cc(C2(NC(=O)O[C@@H]3CCN(c4cn[nH]c(=O)c4Cl)C3)CC2)cn1 [P-0137, (R)-1-(5-chloro-6-oxo-1,6-dihydropyridazin-4-yl)pyrrolidin-3-yl (1-(1-methyl-1H-pyrazol-4-yl)cyclopropyl)carbamate]
0.001 to 10 µM	0.001 to 10 µM	O=C(NC1CCCC12CC2)O[C@@H]1CCN(c2cn[nH]c(=O)c2Cl)C1 (stereo partly drawn) [P-0426, (R)-1-(5-chloro-6-oxo-1,6-dihydropyridazin-4-yl)pyrrolidin-3-yl spiro[2.4]heptan-4-ylcarbamate]
0.001 to 10 µM	0.001 to 10 µM	CC(=O)N[C@H]1CC[C@@H](NC(=O)O[C@@H]2CCN(c3cn[nH]c(=O)c3Cl)C2)CC1 [P-0196, (R)-1-(5-chloro-6-oxo-1,6-dihydropyridazin-4-yl)pyrrolidin-3-yl ((1s,4S)-4-acetamidocyclohexyl)carbamate]
0.001 to 10 µM	0.001 to 10 µM	COC(=O)N[C@H]1CC[C@H](NC(=O)O[C@@H]2CCN(c3cn[nH]c(=O)c3Cl)C2)CC1 [P-0325, (R)-1-(5-chloro-6-oxo-1,6-dihydropyridazin-4-yl)pyrrolidin-3-yl methyl ((1R,4r)-cyclohexane-1,4-diyl)dicarbamate]
0.001 to 10 µM	0.001 to 10 µM	Cn1ncc(N2CC[C@@H](OC(=O)N[C@H]3CC[C@H](NS(=O)(=O)c4ccc(F)cc4)CC3)C2)c(Cl)c1=O [P-0216, (R)-1-(5-chloro-1-methyl-6-oxo-1,6-dihydropyridazin-4-yl)pyrrolidin-3-yl ((1r,4R)-4-((4-fluorophenyl)sulfonamido)cyclohexyl)carbamate]
0.001 to 10 µM	0.001 to 10 µM	O=C(N[C@H]1CC[C@H](NC(=O)c2ccccc2F)CC1)O[C@@H]1CCN(c2cn[nH]c(=O)c2Cl)C1 [P-0314, (R)-1-(5-chloro-6-oxo-1,6-dihydropyridazin-4-yl)pyrrolidin-3-yl ((1r,4R)-4-(2-fluorobenzamido)cyclohexyl) carbamate]
0.001 to 10 µM	0.001 to 10 µM	O=C(N[C@H]1CC[C@H](NS(=O)(=O)c2ccc(C(F)(F)F)nc2)CC1)O[C@@H]1CCN(c2cn[nH]c(=O)c2Cl)C1 [P-0253, (R)-1-(5-chloro-6-oxo-1,6-dihydropyridazin-4-yl)pyrrolidin-3-yl ((1r,4R)-4-((6-(trifluoromethyl)pyridine)-3-sulfonamido)cyclohexyl) carbamate]

Further lines, the compound ahead of its results:

SMILES	IC50 [1]	IC50 [2]
O=C(N[C@H]1CC[C@H](NS(=O)(=O)c2cc(F)ccc2F)CC1)O[C@@H]1CCN(c2cn[nH]c(=O)c2Cl)C1 [P-0298, (R)-1-(5-chloro-6-oxo-1,6-dihydropyridazin-4-yl)pyrrolidin-3-yl ((1r,4R)-4-((2,5-difluorophenyl)sulfonamido)cyclohexyl)carbamate]	0.001 to 10 µM	0.001 to 10 µM
O=C(N[C@H]1CC[C@H](NS(=O)(=O)c2cnn(C3CCCC3)c2)CC1)O[C@@H]1CCN(c2cn[nH]c(=O)c2Cl)C1 [P-0393, (R)-1-(5-chloro-6-oxo-1,6-dihydropyridazin-4-yl)pyrrolidin-3-yl ((1r,4R)-4-((1-cyclopentyl-1H-pyrazole)-4-sulfonamido)cyclohexyl) carbamate]	0.001 to 10 µM	0.001 to 10 µM
O=C(NCC(F)(F)F)N[C@H]1CC[C@H](NC(=O)O[C@@H]2CCN(c3cn[nH]c(=O)c3Cl)C2)CC1 [P-0324, (R)-1-(5-chloro-6-oxo-1,6-dihydropyridazin-4-yl)pyrrolidin-3-yl ((1r,4R)-4-(3-(2,2,2-trifluoroethyl)ureido)cyclohexyl)carbamate]	0.001 to 10 µM	0.001 to 10 µM
CC1(NC(=O)O[C@@H]2CCN(c3cn[nH]c(=O)c3Cl)C2)CCOCC1 [P-0133, (R)-1-(5-chloro-6-oxo-1,6-dihydropyridazin-4-yl)pyrrolidin-3-yl (4-methyltetrahydro-2H-pyran-4-yl)carbamate]	0.001 to 10 µM	0.001 to 10 µM
O=C(NC1CCN(C(=O)CO)CC1)O[C@@H]1CCN(c2cn[nH]c(=O)c2Cl)C1 [P-0105, (R)-1-(5-chloro-6-oxo-1,6-dihydropyridazin-4-yl)pyrrolidin-3-yl (1-(2-hydroxyacetyl)piperidin-4-yl)carbamate]	0.001 to 10 µM	0.001 to 10 µM
CC(=O)N1CC[C@@H](NC(=O)O[C@@H]2CCN(c3cn[nH]c(=O)c3Cl)C2)C1 [P-0353, (R)-1-(5-chloro-6-oxo-1,6-dihydropyridazin-4-yl)pyrrolidin-3-yl ((R)-1-acetylpyrrolidin-3-yl)carbamate]	0.001 to 10 µM	0.001 to 10 µM
O=C(NC1CCCC(F)(F)C1)O[C@@H]1CCN(c2cnn(CCO)c(=O)c2Cl)C1 (stereo partly drawn) [P-0479, (R)-1-(5-chloro-1-(2-hydroxyethyl)-6-oxo-1,6-dihydropyridazin-4-yl)pyrrolidin-3-yl (3,3-difluorocyclohexyl)carbamate]	0.001 to 10 µM	0.001 to 10 µM
CCCNC(=O)[C@H]1CC[C@H](NC(=O)O[C@@H]2CCN(c3cn[nH]c(=O)c3Cl)C2)CC1 [P-0191, (R)-1-(5-chloro-6-oxo-1,6-dihydropyridazin-4-yl)pyrrolidin-3-yl ((1r,4R)-4-(propylcarbamoyl)cyclohexyl) carbamate]	0.001 to 10 µM	0.001 to 10 µM
O=C(NC1CCCC1)O[C@H]1CN(c2cn[nH]c(=O)c2Cl)C[C@@H]1F [P-0462, (3S,4S)-1-(5-chloro-6-oxo-1,6-dihydropyridazin-4-yl)-4-fluoropyrrolidin-3-yl cyclopentylcarbamate]	0.001 to 10 µM	0.001 to 10 µM
O=C(N[C@H]1CCC[C@@H]1O)O[C@@H]1CCN(c2cn[nH]c(=O)c2Cl)C1 [P-0471, (R)-1-(5-chloro-6-oxo-1,6-dihydropyridazin-4-yl)pyrrolidin-3-yl ((1S,2S)-2-hydroxycyclopentyl)carbamate]	0.001 to 10 µM	0.001 to 10 µM
O=C(N[C@H]1CC[C@@H](Nc2ncccn2)CC1)O[C@@H]1CCN(c2cn[nH]c(=O)c2Cl)C1 [P-0352, (R)-1-(5-chloro-6-oxo-1,6-dihydropyridazin-4-yl)pyrrolidin-3-yl ((1s,4s)-4-(pyrimidin-2-ylamino)cyclohexyl)carbamate]	0.001 to 10 µM	0.001 to 10 µM
NC(=O)Cn1ncc(N2CC[C@@H](OC(=O)NC3CCC(F)(F)CC3)C2)c(Cl)c1=O [P-0285, (R)-1-(1-(2-amino-2-oxoethyl)-5-chloro-6-oxo-1,6-dihydropyridazin-4-yl)pyrrolidin-3-yl (4,4-difluorocyclohexyl)carbamate]	0.001 to 10 µM	10 to 100 µM
O=C(N[C@H]1CCOC1)O[C@@H]1CCN(c2cn[nH]c(=O)c2Cl)C1 [P-0107, (R)-1-(5-chloro-6-oxo-1,6-dihydropyridazin-4-yl)pyrrolidin-3-yl ((S)-tetrahydrofuran-3-yl)carbamate]	0.001 to 10 µM	0.001 to 10 µM
CC(C)(C)OC(=O)NCC(=O)N1CCC(NC(=O)O[C@@H]2CCN(c3cn[nH]c(=O)c3Cl)C2)CC1 [P-0160, (R)-1-(5-chloro-6-oxo-1,6-dihydropyridazin-4-yl)pyrrolidin-3-yl (1-((tert-butoxycarbonyl)glycyl)piperidin-4-yl)carbamate]	0.001 to 10 µM	0.001 to 10 µM
O=C(N[C@H]1CC[C@H](NC(=O)c2ccccc2Cl)CC1)O[C@@H]1CCN(c2cn[nH]c(=O)c2Cl)C1 [P-0266, (R)-1-(5-chloro-6-oxo-1,6-dihydropyridazin-4-yl)pyrrolidin-3-yl ((1r,4R)-4-(2-chlorobenzamido)cyclohexyl) carbamate]	0.001 to 10 µM	0.001 to 10 µM
O=C(NC1CCC(F)(F)CC1)O[C@@H]1CCN(c2cnn(CCO)c(=O)c2Cl)C1 [P-0287, (R)-1-(5-chloro-1-(2-hydroxyethyl)-6-oxo-1,6-dihydropyridazin-4-yl)pyrrolidin-3-yl (4,4-difluorocyclohexyl)carbamate]	0.001 to 10 µM	0.001 to 10 µM
O=C(N[C@@H]1CCC[C@H]1O)O[C@@H]1CCN(c2cnn(CCO)c(=O)c2Cl)C1 [P-0477, (R)-1-(5-chloro-1-(2-hydroxyethyl)-6-oxo-1,6-dihydropyridazin-4-yl)pyrrolidin-3-yl ((1R,2R)-2-hydroxycyclopentyl)carbamate]	0.001 to 10 µM	0.001 to 10 µM
